Data published in the NIST ThermoML archive (doi:10.1021/je400980w).
± gives the expanded uncertainty stated by the source.

Conditions: Liquid

vapor or sublimation pressure (420.46 K) [kPa]	vapor or sublimation pressure (431.49 K) [kPa]	vapor or sublimation pressure (439.8 K) [kPa]	vapor or sublimation pressure (420.74 K) [kPa]	vapor or sublimation pressure (432.29 K) [kPa]	vapor or sublimation pressure (440.15 K) [kPa]	SMILES
20 ± 2	30 ± 2	40 ± 2	–	–	–	CCC(O)CO (stereo unspecified) [1,2-butanediol]
–	–	–	20 ± 2	30 ± 2	40 ± 2	OCCO [1,2-ethanediol]
